Assay results: PubChem BioAssay AID2423 (Broad Institute, 2010)
Records with an inconclusive call do not appear. Active and inactive are the calls of the source. How the calls were made is not given here.

Tested on: C. albicans CaCi-8 + fluconazole, Alamar Blue growth, 48 h
Experiment: resistant C. albicans growth inhibition with fluconazole, dose response, CaCi-8 strain, Alamar Blue fluorescence (AID 2423)

| Compound | EC50 |
| --- | --- |
| CC(C)[C@H]1C(=O)O[C@H](C(C)C)C(=O)N(C)[C@@H](C(C)C)C(=O)O[C@H](C(C)C)C(=O)N(C)[C@@H](C(C)C)C(=O)O[C@H](C(C)C)C(=O)N1C | > 15 µM (inactive) |
| CCCNC(=O)C12CCC(C)(c3nc4cc(C)c(C)cc4nc31)C2(C)C (centres undefined) | > 15 µM (inactive) |
| C/C(=N\NC(=O)c1cc(C2CC2)nc2ccccc12)c1ccc(O)cc1O | 2.12 µM |
| CCCC(=O)NC(c1ccc(C)cc1)c1ccc2cccnc2c1O (centres undefined) | 0.715 µM |
| COCCSc1nnc(NC(=O)C2CC(=O)N(c3ccc(C)cc3)C2)s1 (centres undefined) | > 16 µM (inactive) |
| Cc1cc(C)c2nc(NNC(=O)c3cc(-c4cccs4)nc4ccccc34)sc2c1 | 0.804 µM |
| Cc1ccc(Nc2nc(N)c([N+](=O)[O-])c(N3CCC(C)CC3)n2)cc1C | 3.64 µM |
| COc1ccccc1NC(c1cccnc1)c1ccc2cccnc2c1O (centres undefined) | 14.9 µM |
| COc1ccc(-c2nnc(NC(=O)c3ccc(F)cc3)o2)cc1 | 0.246 µM |
| OC(COc1ccc2c(c1)OCO2)CN1CCCC1 (centres undefined) | > 15 µM (inactive) |
| CCOC(=O)C1CCN(C(=O)c2ccc3c(=O)n4nc(Nc5cc(C)ccc5C)sc4nc3c2)CC1 | 0.4 µM |
| CN1c2ccccc2N(C)C1(C)c1ccccc1 | > 15 µM (inactive) |
| Cc1cccc(NCc2ccc(O)c3ncccc23)c1C | 11.8 µM |
| CCOC(=O)CNC(=O)c1sc2ncnc(N3CCc4ccccc4C3)c2c1C | 4.56 µM |
| Cc1[nH]c2ccccc2c1/C=C/c1cc[n+](C)cc1 | 7.18 µM |
| C/C(=C\C(=O)OCCCCCCCCC(=O)O)C[C@@H]1OC[C@H](C[C@@H]2O[C@H]2[C@@H](C)[C@H](C)O)[C@@H](O)[C@H]1O | > 15 µM (inactive) |
| CCOC(=O)c1c(NC(=S)NCC2CCCO2)sc(C)c1C (centres undefined) | < 0.12 µM |
| CCc1ccc(OCC(=O)NNC(=S)NC(=O)C2CC2)c(Br)c1 | 1.19 µM |
| CC1(C)CC(N2CCCC2)=CC(=[N+]2CCCC2)C1 | 6.31 µM |
| NC(=O)c1ccsc1NC(=O)CCS(=O)(=O)c1ccccc1 | 1.73 µM |
| O=C(CSc1nnc(-c2ccc(Br)cc2)o1)Nc1cccc2ccccc12 | 15.6 µM |
| O=[N+]([O-])c1ccc(C(=Nc2cccc3ccccc23)N2CCOCC2)cc1 | 1.35 µM |

| Compound | EC50 |
| --- | --- |
| CCC(=O)N1CCN(c2ccc(Cl)cc2NC(=O)c2ccc3c(c2)OCCO3)CC1 | 0.811 µM |
| O=C(Nc1nnc(-c2ccco2)o1)c1ccc(Cl)cc1 | 1.16 µM |
| O=C(COc1ccc(Cl)cc1)NC1CCSC1=O (centres undefined) | > 16 µM (inactive) |
| CN1/C(=C\C(=O)C[n+]2ccc(C(=O)c3ccccc3)cc2)C(C)(C)c2ccccc21 | 4.06 µM |
| CCCCOc1cccc(C(=O)NNC(=S)NC2CCCCC2)c1 | 8.74 µM |
| O=C(CCc1ccccc1)NNC(=S)NC(=O)c1ccccc1 | 3.13 µM |
| CN(C)c1ccc(-c2n(C)c3ccccc3[n+]2C)cc1 | 3.93 µM |
| Cn1c(/C=C/c2cccc([N+](=O)[O-])c2)c([N+](=O)[O-])c(=O)n(C)c1=O | 2.53 µM |
| CCOc1cccc(-c2c(C(=O)N/N=C(\C)c3ccccn3)nnn2-c2nonc2N)c1 | 15.6 µM |
| COc1ccc(C(=O)C(CN2CCCC2)c2ccccc2)cc1 (centres undefined) | > 16 µM (inactive) |
| COc1cc(OC)c2cc(C(=O)N/N=C/c3ccccc3O)[nH]c2c1 | 1.24 µM |
| Cc1ccc(C(=O)NC(=S)NNC(=O)c2ccccc2[N+](=O)[O-])cc1 | > 15 µM (inactive) |
| O=[N+]([O-])c1ccc2c(c1)[nH]c(=S)n2-c1ccccc1 | 0.648 µM |
| Nc1nonc1-n1nnc(C(=O)N/N=C/c2cc(Cl)ccc2O)c1CN1CCCCCC1 | 1.82 µM |
| CCC1=NN(C(=O)c2ccccc2O)C(O)(c2ccccc2)C1 (centres undefined) | 7.37 µM |
| O=C(c1cc2ccccc2cc1O)N1CCN(c2ccccc2O)CC1 | 0.209 µM |
| Cc1ccc(O)c(N=Cc2cc(Cc3ccccc3)cc([N+](=O)[O-])c2O)c1 | 13.7 µM |
| COCCN1C(=O)C(O)=C(C(=O)c2ccco2)C1c1cccc(Oc2ccccc2)c1 (centres undefined) | 3.84 µM |
| CCCC(=O)NC(c1ccc(C(C)C)cc1)c1ccc2cccnc2c1O (centres undefined) | 0.659 µM |
| CCCCOc1cccc(C2C(C(=O)c3ccc(C)o3)=C(O)C(=O)N2Cc2ccco2)c1 (centres undefined) | 0.394 µM |
| C[C@]12CC[C@H](O)C[C@@H]1CC[C@@H]1[C@@H]2CC[C@]2(C)C(=O)CC[C@@H]12 | 5.65 µM |
| O=C(Nc1ccccc1N1CCOCC1)c1cc(F)cc(F)c1 | 2.66 µM |

| Compound | EC50 |
| --- | --- |
| Cc1ccc(-n2ncc(Br)c(Br)c2=O)cc1 | 0.855 µM |
| Oc1ccc(N=Nc2ccc3c(c2)OCCO3)c2ncccc12 | 0.709 µM |
| Cc1ccc(-n2c(-c3ccccc3)c[n+]3c2CCC3)cc1 | 8.58 µM |
| COc1cc(C(=O)Oc2c(CN3CCOCC3)cc(Cl)c3cccnc23)cc(OC)c1OC | 2.74 µM |
| COc1cccc2sc(=NC(=O)CS(=O)(=O)c3ccc(Cl)cc3)n(C)c12 | 6.53 µM |
| CCOC(=O)C(=Cc1cc(=O)c(OC)co1)C(=O)OCC | 0.331 µM |
| CCn1nnnc1NC(=O)c1cc(Cl)c(OC)c(Cl)c1 | 5.45 µM |
| CCOC(=O)N1CCN(Cc2ccc(O)c3ncccc23)CC1 | 12.5 µM |
| CC(=O)N1CCC(=NNC(=O)c2cc3ccccc3cc2O)CC1 | 11.9 µM |
| CNC(=O)Nc1cc(C(F)(F)F)cc(C(F)(F)F)c1 | 0.742 µM |
| FC(F)(F)COc1nc(OCC(F)(F)F)nc(N2CCN(c3ccccc3)CC2)n1 | > 16 µM (inactive) |
| CN(C)c1ccc(/C=C/c2ccc3ccccc3[n+]2C)cc1 | 0.37 µM |
| O=C(N/N=C\c1cc(Cl)ccc1O)c1ccc(S(=O)(=O)N2CCCCC2)cc1 | 0.926 µM |
| CN1CCN(C(=O)c2cnn(-c3ccccc3)c2NC(=O)c2ccccc2)CC1 | > 15 µM (inactive) |
| CN(C)CCCNC(=O)c1ccc(-c2nc(-c3ccc(Cl)cc3)cs2)cc1 | 2.61 µM |
| Oc1ccccc1N=Nc1ccccc1O | 0.973 µM |
| Nc1n[nH]c(-c2cccc([N+](=O)[O-])c2)n1 | > 15 µM (inactive) |
| c1csc(CNc2ncnc3sccc23)c1 | 1.76 µM |
| Cc1ccc2nc(-c3ccccc3Cl)cc(C(=O)Nc3cc(C)on3)c2c1 | 0.505 µM |
| CC(=O)c1c(C)[nH]c(C(=O)Nc2ccc(C)c(C)c2)c1C | 3.45 µM |
| Cc1[nH]n(C(N)=S)c(=O)c1N=Nc1ccc(S(=O)(=O)N2CCCCCC2)cc1 | 9.48 µM |
| CC1(C)CC(=O)C2=C(C1)c1c(ccc3ccccc13)NC2c1cc([N+](=O)[O-])cc([N+](=O)[O-])c1O (centres undefined) | > 15 µM (inactive) |

| Compound | EC50 |
| --- | --- |
| COc1cccc(/C=N/NC(=O)c2cc(-c3cccn3C)n[nH]2)c1O | 5.64 µM |
| COC1=CC(=O)C(O)=C(CCCCCCC/C=C/CCCCCCCC2=C(O)C(=O)C=C(OC)C2=O)C1=O | 11.9 µM |
| O=C(N/N=C/c1cc([N+](=O)[O-])ccc1O)c1ccc(COc2ccc3c(c2)CCC3)o1 | 0.915 µM |
| CCN1/C(=C/C=C/c2oc3ccc(-c4ccccc4)cc3[n+]2CC)Oc2ccc(-c3ccccc3)cc21 | 0.589 µM |
| CC1CCN(C(=O)Cn2c3ccccc3c3nc4n(c(=O)c32)CCS4)CC1 | > 16 µM (inactive) |
| O=C(O)c1ccc(-c2nc(-c3ccc(Cl)cc3)cs2)cc1 | 3.42 µM |
| Oc1c(C(Nc2cccc(C(F)(F)F)c2)c2cccnc2)ccc2cccnc12 (centres undefined) | 2.07 µM |
| Cc1cc([N+](=O)[O-])ccc1-c1ccc(C2Nc3ccccc3C(=O)N2O)o1 (centres undefined) | 2.44 µM |
| O=C(Oc1ccc(Cl)c2cccnc12)c1cccc([N+](=O)[O-])c1 | 12.3 µM |
| Fc1cccc2sc(Nc3nnc(-c4ccco4)o3)nc12 | > 15 µM (inactive) |
| Cc1cc(N2C(=O)C(O)=C(C(=O)c3cc4ccccc4o3)C2c2cccs2)no1 (centres undefined) | 4.08 µM |
| CCCS(=O)(=O)c1nnnn1-c1cccc(OC)c1 | > 15 µM (inactive) |
| CCOCCCNC(=O)c1ccc(N(C)S(=O)(=O)c2ccc(OC)cc2)cc1 | > 16 µM (inactive) |
| Cc1ccc(C(=O)CC(=O)c2ccccc2C)c(O)c1 | 1.9 µM |
| CCCCCCCNC(=O)COc1ccc2c(c1)C(=O)CC(C)(C)O2 | 1.1 µM |
| CC(=O)NNC(=S)NC(=O)C(c1ccccc1)c1ccccc1 | 3.19 µM |
| C[N+]1(CC(=O)OC2CCCCCCCCCCC2)CCCC1 | 4.94 µM |
| Cc1[nH]n(-c2ccccc2)c(=O)c1/C=N/Nc1nncc(-c2ccccc2)n1 | 2.67 µM |
| CN1CCN(C(c2ccc(Br)cc2)c2cc(Cl)c3cccnc3c2O)CC1 (centres undefined) | 0.624 µM |
| CC(C)(C)CC(=O)Nc1nnc(C(F)(F)F)s1 | > 16 µM (inactive) |
| CCOc1ccccc1C(=O)N/N=C/c1ccoc1 | 2.18 µM |
| O=C(NNC(=S)NC(=O)c1ccc(Br)cc1)c1ccc([N+](=O)[O-])cc1 | 0.416 µM |

| Compound | EC50 |
| --- | --- |
| CCNc1nc(N)nc(-c2cc(Cl)ccc2O)n1 | 1.9 µM |
| CCc1ccc(-c2csc3ncn(Cc4ccc(C(=O)O)cc4)c(=O)c23)cc1 | 0.954 µM |
| COc1ccc(-n2nc(C(=O)NCC(=O)N3CCN(c4ccc(F)cc4)CC3)c3ccccc3c2=O)c(OC)c1 | 0.773 µM |
| O=C(CCS(=O)(=O)c1cccc2nsnc12)N1CCN(C(=O)c2ccco2)CC1 | > 16 µM (inactive) |
| O=C(NCc1ccccc1)C1c2ccccc2Oc2ccccc21 | 6.03 µM |
| COc1cccc(F)c1C(C[N+](=O)[O-])c1c(N)n(C)c(=O)n(C)c1=O (centres undefined) | 1.67 µM |
| Cc1oc2ccc(OC(=O)N(C)C)cc2c1C(=O)OC(C)C | 4 µM |
| O=C(CCS(=O)(=O)c1ccccc1)Nc1nnc(C(F)(F)F)s1 | > 16 µM (inactive) |
| COc1ccc(C(=O)NC(=S)NNC(=O)c2cnccn2)cc1 | 3.54 µM |
| Cn1c(N/N=C/c2c[nH]c3ccccc23)nc2ccccc21 | 6.03 µM |
| C[n+]1c2n(c3ccccc31)N=C(c1ccc(-c3ccccc3)cc1)CS2 | 1.88 µM |
| Cc1[nH]n(-c2cccc3ccccc23)c(=O)c1/C=N/NC(=O)c1cccc([N+](=O)[O-])c1 | 3.27 µM |
| Cc1ccc(C(=O)Cn2cccn2)cc1 | 12.7 µM |
| CN=c1scc(-c2cccs2)n1/N=C/c1ccc(O)c(O)c1O | 14.5 µM |
| Cc1nn(-c2ccccc2)c(N2CCCC2)c1/C=N/NC(=O)c1ccccc1O | > 15 µM (inactive) |
| COc1cccc(CN(C(=O)c2cc3ccccc3oc2=O)C2CC2)c1 | > 15 µM (inactive) |
| Nc1nnnn1/N=C/c1cccc(Oc2ccccc2)c1 | 3.45 µM |
| CSC(=S)NCc1cccnc1 | > 16 µM (inactive) |
| O=S(=O)(O)c1cc(O)c2c(O)c(N=Nc3cc(Cl)ccc3O)c(S(=O)(=O)O)cc2c1 | 7.52 µM |
| Cc1cccc(NC(=O)CSC(N)=O)c1C | > 15 µM (inactive) |
| Cc1ccc(S(=O)(=O)/N=C(/c2ccccc2)N2CCOCC2)c(C)c1 | > 16 µM (inactive) |
